From patent US9844577B1, “Medicinal composition for prevention or treatment retinal ischemia” (priority 2017, dated 2017)

Tests used:
Experiment in all cases: Retinal protein level by western blot after retinal ischemia
Format in all cases: in vivo, Wistar rats
[1] = test system: HIF-1α protein; conditions: intravitreal 5 μl 15 min before ischemia: 4 μM Shikonin, 10 μM JIB-04, 100 mg/4 ml Avastin; Vehicle 3.69±0.22
Procedure: (§1) After anesthesia, rats (200-250 g) were placed in a stereotaxic frame. A high intraocular pressure (HIOP) of 120 mmHg for 60 min was induced by cannulating the anterior chamber of one eye of an ischemic rat with a 30-gauge needle connected to an elevated 0.9% saline reservoir. The ischemic insult was confirmed by the detection of a pale eye fundus. In contrast, one eye of a control rat received a sham procedure where the saline reservoir was not elevated.
(§2) An intake of 1.35 or 2.7 g/kg/day XFZYD (Sun Ten Pharmaceutical CO, Taichung, Taiwan) was given for 7 consecutive days before or after HIOP induced retinal ischemia until the rats were sacrificed. The test rat whose eye was subjected to ischemia was fed with the constant volume (4 ml) of XFZYD or the equal volume of vehicle.
(§3) After anesthesia as described, pupil dilation with 1% tropicamide (Alcon, ZG, Switzerland) and 2.5% phenylephrine (Akorn, Inc., IL, USA) as well as surface anesthesia with 0.5% proparacaine (Alcon, ZG, Switzerland), a 30-gauge needle attached to a 25 μl syringe was used to perform intravitreal injections. In certain instances, intravitreal injections 5 μl of 4 μM Shikolin (Sigma-Aldrich, MO, USA), 10 μM JIB-04 (Sigma-Aldrich, MO, USA), 5 μl of 100 mg/4 ml Avastin (Hoffmann-La Roche, Basel, Switzerland) or of vehicle (an equal volume of dimethyl sulfoxide; J. T. Baker, NJ, USA) were performed on ischemic eyes fifteen minutes before pressure induced retinal ischemia.
(§4) Twenty-four hours after retinal ischemia and pre-/post-ischemia administration of the defined chemicals or after a sham procedure, the rats were sacrificed. The retinas were removed and sonicated in lysis buffer, namely mammalian protein extraction reagent (HyCell, Taipei, Taiwan). […] Journal of Ocular Pharmacology and Therapeutics. 2010; 26(5):421-429; Hsiao-Ming Chao, Min-Jay Chuang, Jorn-Hon Liu, Xiao-Qian Liu, Li-Kang Ho, Wynn H. T. Pan, Xiu-Mei Zhang, Chi-Ming Liu, Shen-Kou Tsai, Chi-Woon Kong, Shou-Dong Lee, Mi-Mi Chen, and Fang-Ping Chao. Baicalein protects against retinal ischemia by antioxidation, antiapoptosis, downregulation of HIF-1α, VEGF, and MMP-9 and upregulation of HO-1. Journal of Ocular Pharmacology and Therapeutics. 29(6): 539-549, 2013). The separated proteins were transferred to a polyvinylidene difluoride (PVDF) membrane (Millipore, MA, USA). The membranes were then blocked for 1 hour at room temperature with 5% fat-free skimmed milk (Fonterra, Taoyuan, Taiwan) in phosphate-buffered saline (PBS). Next, the blots were incubated individually overnight at 4° C. with one of the following primary antibodies, namely, mouse monoclonal anti-β-actin antibody (1:80000, Novusbio, MA, USA), mouse monoclonal anti-VEGF antibody (1:200, Novusbio, MA, USA), mouse monoclonal anti-HIF-1α antibody (1:1000, Abcom, Cambridge, UK), rabbit polyclonal anti-PKM2 antibody (1:600, Abcom, Cambridge, UK) and rabbit monoclonal anti-RBP2 antibody (1:500, Abcom, Cambridge, UK). The blots were then incubated in the secondary antibody, either horseradish peroxidase (HRP)-conjugated goat anti-rabbit or antimouse IgG (1:2000 or 1:10000, Santa Cruz Biotechnology, TX, USA) as appropriate at 37° C. for 1 h. The primary/secondary antibodies were diluted in 5% fat-free skimmed milk. Finally, the membranes were developed using the enhanced chemiluminescent analysis system (HyCell, Taipei, Taiwan), and exposed to an X-ray film (Fujifilm, Tokyo, Japan). Scanning densitometry was used to analyze the amount of each protein present.

[2] = test system: PKM2 protein; conditions: intravitreal 5 μl 15 min before ischemia: 4 μM Shikonin, 10 μM JIB-04, 100 mg/4 ml Avastin; Vehicle 4.04±0.50
Procedure: as §1, §2, §3, §4

[3] = test system: RBP2 protein; conditions: intravitreal 5 μl 15 min before ischemia: 4 μM Shikonin, 10 μM JIB-04, 100 mg/4 ml Avastin; Vehicle 7.77±2.27
Procedure: as §1, §2, §3, §4

[4] = test system: VEGF protein; conditions: intravitreal 5 μl 15 min before ischemia: 4 μM Shikonin, 10 μM JIB-04, 100 mg/4 ml Avastin; Vehicle 6.92±1.55
Procedure: as §1, §2, §3, §4

Compound | ratio of protein expression level of HIF-1α relative to β-actin [1] | ratio of protein expression level of PKM2 relative to β-actin [2] | ratio of protein expression level of RBP2 relative to β-actin [3] | ratio of protein expression level of VEGF relative to β-actin [4]
Clc1ccc(N/N=C(\c2ccccc2)c2ccccn2)nc1 [JIB-04] | 2.14±1.11 | 1.67±1.31 | 1.16±0.14 | 1.68±0.46
CC(C)=CC[C@@H](O)C1=CC(=O)c2c(O)ccc(O)c2C1=O [Shikonin] | 1.95±0.76 | 0.61±0.19 | 1.00±0.71 | 1.84±0.60
Avastin: VEGF antibody (Hoffmann-La Roche) | 3.65±0.84 | 3.42±0.88 | 6.00±3.61 | 1.08±0.23
